Reference: ChEMBL document CHEMBL3046568, “Synthesis, antimicrobial and DNA cleavage studies of some 4-aryloxymethylcoumarins obtained by reaction of 4-bromomethylcoumarins with bidentate nucleophiles” (2012)
Values after ≈ are worked out from the molar mass of the structure shown. Active and inactive are the calls of the source. The calls are words filed in the database; no cut-off is given here.

How the values were obtained:
Mucor fuscus = assay: Antifungal activity against Mucor fuscus after 3 to 4 days by serial dilution method; format: functional; settings: for MIC: Mucor fuscus
Candida albicans = assay: Antifungal activity against Candida albicans after 3 to 4 days by serial dilution method; format: functional; settings: for MIC: Candida albicans
Aspergillus niger [1] = assay: Induction of Aspergillus niger DNA cleavage at 50 ug after 2 hr by agarose gel electrophoresis
Klebsiella pneumoniae = assay: Antibacterial activity against Klebsiella pneumoniae MTCC 3384 after 24 hr by disk diffusion method; format: functional; settings: for MIC: Klebsiella pneumoniae, MTCC 3384, 24 h
Aspergillus fumigatus = assay: Antifungal activity against Aspergillus fumigatus after 3 to 4 days by serial dilution method; format: functional; settings: for MIC: Aspergillus fumigatus
Escherichia coli [2] = assay: Induction of Escherichia coli MTCC 1089 DNA cleavage at 50 ug after 2 hr by agarose gel electrophoresis
Fusarium oxysporum = assay: Antifungal activity against Fusarium oxysporum after 3 to 4 days by serial dilution method; format: functional; settings: for MIC: Fusarium oxysporum
Pseudomonas aeruginosa = assay: Antibacterial activity against Pseudomonas aeruginosa MTCC 1034 after 24 hr by disk diffusion method; format: functional; settings: for MIC: Pseudomonas aeruginosa, MTCC 1034, 24 h
Staphylococcus aureus [3] = assay: Induction of Staphylococcus aureus MTCC 3160 DNA cleavage at 50 ug after 2 hr by agarose gel electrophoresis
Staphylococcus aureus [4] = assay: Antibacterial activity against Staphylococcus aureus MTCC 3160 after 24 hr by disk diffusion method; format: functional; settings: for MIC: Staphylococcus aureus, MTCC 3160, 24 h
Escherichia coli [5] = assay: Induction of Escherichia coli MTCC 1089 DNA cleavage at 25 ug after 2 hr by agarose gel electrophoresis
Bacillus subtilis = assay: Antibacterial activity against Bacillus subtilis MTCC 297 after 24 hr by disk diffusion method; format: functional; settings: for MIC: Bacillus subtilis, MTCC 297, 24 h
Penicillium chrysogenum = assay: Antifungal activity against Penicillium chrysogenum after 3 to 4 days by serial dilution method; format: functional; settings: for MIC: Penicillium chrysogenum
Enterococcus faecalis = assay: Antibacterial activity against Enterococcus faecalis MTCC 3382 after 24 hr by disk diffusion method; format: functional; settings: for MIC: Enterococcus faecalis, MTCC 3382, 24 h
Escherichia coli [6] = assay: Antibacterial activity against Escherichia coli MTCC 1089 after 24 hr by disk diffusion method; format: functional; settings: for MIC: Escherichia coli, MTCC 1089, 24 h
Aspergillus niger [7] = assay: Antifungal activity against Aspergillus niger after 3 to 4 days by serial dilution method; format: functional; settings: for MIC: Aspergillus niger

SMILES | inhibition zone (IZ) (Mucor fuscus) [mm] | MIC (Mucor fuscus) [µg/mL] | inhibition zone (IZ) (Candida albicans) [mm] | MIC (Candida albicans) [µg/mL] | Activity (Aspergillus niger [1]) | inhibition zone (IZ) (Klebsiella pneumoniae) [mm] | MIC (Klebsiella pneumoniae) [µg/mL] | inhibition zone (IZ) (Aspergillus fumigatus) [mm] | MIC (Aspergillus fumigatus) [µg/mL] | Activity (Escherichia coli [2]) | inhibition zone (IZ) (Fusarium oxysporum) [mm] | inhibition zone (IZ) (Pseudomonas aeruginosa) [mm] | MIC (Pseudomonas aeruginosa) [µg/mL] | Activity (Staphylococcus aureus [3]) | inhibition zone (IZ) (Staphylococcus aureus [4]) [mm] | MIC (Staphylococcus aureus [4]) [µg/mL] | Activity (Escherichia coli [5]) | inhibition zone (IZ) (Bacillus subtilis) [mm] | MIC (Bacillus subtilis) [µg/mL] | inhibition zone (IZ) (Penicillium chrysogenum) [mm] | further results
COc1ccc2oc(=O)cc(COc3cccc(O)c3)c2c1 | 19 | 6.25 (≈ 21 µM) | 19 | 6.25 (≈ 21 µM) | Active | 21 | 6.25 (≈ 21 µM) | 17 | 12.5 (≈ 41.9 µM) | Active | 16 | 25 | 6.25 (≈ 21 µM) | Active | 20 | 6.25 (≈ 21 µM) | Active | 18 | 6.25 (≈ 21 µM) | 20 | MIC (Fusarium oxysporum): 12.5 µg/mL (≈ 41.9 µM); MIC (Penicillium chrysogenum): 6.25 µg/mL (≈ 21 µM); inhibition zone (IZ) (Enterococcus faecalis): 21 mm; MIC (Enterococcus faecalis): 6.25 µg/mL (≈ 21 µM); inhibition zone (IZ) (Escherichia coli [6]): 18 mm; MIC (Escherichia coli [6]): 12.5 µg/mL (≈ 41.9 µM); inhibition zone (IZ) (Aspergillus niger [7]): 20 mm; MIC (Aspergillus niger [7]): 6.25 µg/mL (≈ 21 µM)
CCN(CC)c1cccc(OCc2cc(=O)oc3ccc(OC)cc23)c1 | 19 | 6.25 (≈ 17.7 µM) | 17 | 6.25 (≈ 17.7 µM) | Active | 20 | 6.25 (≈ 17.7 µM) | 19 | 6.25 (≈ 17.7 µM) | Active | 15 | 25 | 6.25 (≈ 17.7 µM) | Active | 20 | 6.25 (≈ 17.7 µM) | Active | 18 | 6.25 (≈ 17.7 µM) | 23 | MIC (Penicillium chrysogenum): 6.25 µg/mL (≈ 17.7 µM); inhibition zone (IZ) (Enterococcus faecalis): 20 mm; MIC (Enterococcus faecalis): 6.25 µg/mL (≈ 17.7 µM); inhibition zone (IZ) (Escherichia coli [6]): 17 mm; MIC (Escherichia coli [6]): 12.5 µg/mL (≈ 35.4 µM); inhibition zone (IZ) (Aspergillus niger [7]): 20 mm; MIC (Aspergillus niger [7]): 6.25 µg/mL (≈ 17.7 µM)
COc1ccc2oc(=O)cc(COc3cccc(OCc4cc(=O)oc5ccc(OC)cc45)c3)c2c1 | 20 | 6.25 (≈ 12.8 µM) | 17 | 6.25 (≈ 12.8 µM) | Active | 20 | 6.25 (≈ 12.8 µM) | 18 | 12.5 (≈ 25.7 µM) | Active | 15 | 24 | 6.25 (≈ 12.8 µM) | Active | 19 | 6.25 (≈ 12.8 µM) | Active | 18 | 6.25 (≈ 12.8 µM) | 17 | MIC (Fusarium oxysporum): 12.5 µg/mL (≈ 25.7 µM); MIC (Penicillium chrysogenum): 12.5 µg/mL (≈ 25.7 µM); inhibition zone (IZ) (Enterococcus faecalis): 21 mm; MIC (Enterococcus faecalis): 6.25 µg/mL (≈ 12.8 µM); inhibition zone (IZ) (Escherichia coli [6]): 17 mm; MIC (Escherichia coli [6]): 12.5 µg/mL (≈ 25.7 µM); inhibition zone (IZ) (Aspergillus niger [7]): 18 mm; MIC (Aspergillus niger [7]): 12.5 µg/mL (≈ 25.7 µM)
